In publication PMC12000094, “Development of a highly sensitive luciferase assay for intracellular evaluation of coronavirus Mpro activity” (Frontiers in Microbiology, 2025):
Where two headings read alike, the source gives them in different places. Square brackets hold non-standard residues; d marks the D form. Peptide text beside a SMILES is read from it. Nle = CCCC[C@H](N)C(=O)O

Legend:
HCoV-229E [1] = assay: microbe, parasite or virus in culture; format: cell-based, HCoV-229E (Huh-7 cells); details: for IC50: read-out: IC50 (inhibition of luciferase expression, HCoV-229E infection); for antiviral potency against HCoV 229E in words: ICMP assay, Huh-7 cells
HCoV-229E [2] = assay: RT-qPCR of viral RNA and Mpro gene in HCoV-229E-infected, drug-treated Huh-7 cells; format: cell-based, HCoV-229E (Huh-7 cells); details: infected Huh-7 cells, 48 h post-infection
229E coronavirus = system: 229E coronavirus; design: method as in Boras et al., 2021; details: cell-based assay; ref Boras et al., 2021; read-out: IC50 (anti-229E coronavirus activity, previous study); cited from earlier work
[3] = Human coronavirus 229E, Huh-7, 48 h

SMILES: CC(C)(C)NC(=O)N[C@H](C(=O)N1C[C@H]2[C@@H]([C@H]1C(=O)NC(CC1CCC1)C(=O)C(N)=O)C2(C)C)C(C)(C)C (stereo partly drawn) [Boceprevir]
- IC50 (HCoV-229E [1]; [3]): > 50000 nM
- antiviral potency against HCoV 229E in words (HCoV-229E [1]): very weak inhibitory potency

SMILES: O=c1cc(-c2ccc(O)c(O)c2)oc2cc(O[C@@H]3O[C@H](CO)[C@@H](O)[C@H](O)[C@H]3O)cc(O)c12 [Cynaroside, luteolin 7-O-β-D-glucoside]
- antiviral potency against HCoV 229E in words (HCoV-229E [1]): moderate inhibitory effects
- antiviral potency against HCoV 229E in words (HCoV-229E [1]; listed as cynaroside): moderate antiviral activity
- IC50 (HCoV-229E [1]): 21600 nM

SMILES: CC(C)C[C@H](NC(=O)OCc1ccccc1)C(=O)N[C@@H](CC1CCNC1=O)C(O)S(=O)(=O)O (stereo partly drawn) [GC376]
- IC50 (HCoV-229E [1]): 345 nM

SMILES: CC(C)C[C@H](NC(=O)OCc1ccccc1)C(=O)N[C@@H](C[C@@H]1CCNC1=O)C(O)S(=O)(=O)[O-].[Na+] (stereo partly drawn) [GC376]
- antiviral potency against HCoV 229E in words (HCoV-229E [1]): effectively suppresses the replication

SMILES: COc1cccc2[nH]c(C(=O)N[C@@H](CC(C)C)C(=O)N[C@@H](C[C@@H]3CCNC3=O)C(=O)COP(=O)(O)O)cc12 [Lufotrelvir]
- IC50 (HCoV-229E [1]; [3]): 65 nM
- intracellular 229E Mpro expression (RT-qPCR, normalized to GAPDH) versus drug concentration (HCoV-229E [2]; increasing drug concentration): decreased significantly
- HCoV 229E viral RNA levels (RT-qPCR, normalized to GAPDH) versus drug concentration (HCoV-229E [2]; increasing drug concentrations): negative correlation
- IC50 (229E coronavirus): 58 nM

SMILES: CCCC[C@@H](C=O)NC(=O)[C@H](CC(C)C)NC(=O)[C@H](CC(C)C)NC(C)=O [MG-101] (Ac-Leu-Leu-[Nle]-aldehyde)
- antiviral potency against HCoV 229E in words (HCoV-229E [1]): moderate cellular inhibition
- IC50 (HCoV-229E [1]): 2800 nM

SMILES: CC(C)(C)[C@H](NC(=O)C(F)(F)F)C(=O)N1C[C@H]2[C@@H]([C@H]1C(=O)N[C@H](C#N)C[C@@H]1CCNC1=O)C2(C)C [Nirmatrelvir]
- IC50 (HCoV-229E [1]; [3]): 233 nM

SMILES: CC(C)(C)c1ccc(N(C(=O)c2cnc[nH]2)[C@@H](C(=O)NC2CCCCC2)c2cccnc2)cc1 [X77]
- IC50 (HCoV-229E [1]): 457 nM
